Measured values reported in ChEMBL document CHEMBL4765295, “Synthesis, pharmacological profile and 2D-QSAR studies of curcumin-amino acid conjugates as potential drug candidates” (Eur J Med Chem, 2020).
Several values for one entry are separate records, joined by “and”; a condition that tells them apart may be missing. Equal entries are not always repeated.

What was measured:
[1] = tested on: Rattus norvegicus; test: Anti-inflammatory activity in Wistar rat assessed as inhibition of carrageenan-induced paw edema at 10 mg/kg, ip pretreated for 1 hr followed by carrageenan challenge and measured after 3 hr relative to control (reference value: 0.00 +/-0.1 %); type: functional; settings: time 4 hrs
[2] = tested on: Rattus norvegicus; test: Antiinflammatory activity in Wistar rat model of carrageenan-induced paw edema assessed as reduction in thickness of paw edema at 10 mg/kg, ip pretreated for 1 hr followed by carrageenan challenge and measured after 2 hrs (reference value: 2.06 +/-0.09 mm); type: functional; settings: time 3 hrs
[3] = tested on: Candida albicans; test: Antifungal activity against Candida albicans incubated for 18 to 24 hrs by CLSI method; type: functional; settings: time 18-24 hrs
[4] = tested on: Rattus norvegicus; test: Anti-inflammatory activity in Wistar rat assessed as inhibition of carrageenan-induced paw edema at 10 mg/kg, ip pretreated for 1 hr followed by carrageenan challenge and measured after 1 hr relative to control (reference value: 0.00 +/-0.02 %); type: functional; settings: time 2 hrs
[5] = tested on: Rattus norvegicus; test: Antiinflammatory activity in Wistar rat model of carrageenan-induced paw edema assessed as reduction in thickness of paw edema at 10 mg/kg, ip pretreated for 1 hr followed by carrageenan challenge and measured after 4 hrs (reference value: 1.40 +/-0.10 mm); type: functional; settings: time 5 hrs
[6] = tested on: Rattus norvegicus; test: Anti-inflammatory activity in Wistar rat assessed as inhibition of carrageenan-induced paw edema at 10 mg/kg, ip pretreated for 1 hr followed by carrageenan challenge and measured after 2 hr relative to control (reference value: 0.00 +/-0.03 %); type: functional; settings: time 3 hrs
[7] = tested on: Rattus norvegicus; test: Anti-inflammatory activity in Wistar rat assessed as inhibition of carrageenan-induced paw edema at 10 mg/kg, ip pretreated for 1 hr followed by carrageenan challenge and measured after 24 hr relative to control (reference value: 0.00 +/-0.3 %); type: functional; settings: time 25 hrs
[8] = tested on: Rattus norvegicus; test: Anti-inflammatory activity in Wistar rat assessed as inhibition of carrageenan-induced paw edema at 10 mg/kg, ip pretreated for 1 hr followed by carrageenan challenge and measured after 4 hr relative to control (reference value: 0.00 +/-0.4 %); type: functional; settings: time 5 hrs
[9] = tested on: Rattus norvegicus; test: Anti-inflammatory activity in Wistar rat assessed as inhibition of carrageenan-induced paw edema at 10 mg/kg, ip pretreated for 1 hr followed by carrageenan challenge and measured after 4 hr relative to indomethacin; type: functional; settings: time 5 hrs
[10] = tested on: Pseudomonas aeruginosa; test: Antibacterial activity against Pseudomonas aeruginosa ATCC 27853 incubated for 18 hrs by agar dilution assay; type: functional
[11] = tested on: Staphylococcus aureus; test: Antibacterial activity against Staphylococcus aureus ATCC 25923 incubated for 18 hrs by agar dilution method; type: functional
[12] = tested on: Splenocyte; test: Immunomodulatory activity in Swiss albino mouse splenocytes assessed as cell viability at 10 uM by measuring stimulation index incubated for 72 hrs in presence of mitogenic stimulus phytohaemagglutinin by MTT assay (reference value: 1.00 +/- 0.24); type: functional
[13] = tested on: Rattus norvegicus; test: Antiinflammatory activity in Wistar rat model of carrageenan-induced paw edema assessed as reduction in thickness of paw edema at 10 mg/kg, ip pretreated for 1 hr followed by carrageenan challenge and measured after 3 hrs (reference value: 1.79 +/-0.07 mm); type: functional; settings: time 4 hrs
[14] = tested on: Peritoneal macrophage; test: Antiinflammatory activity in […] mouse Peritoneal macrophages assessed as reduction in LPS-induced NO production by measuring reduction in stimulation index at 10 uM preincubated for 1 hr followed by LPS stimulation measured after 24 hrs by Griess method (reference value: 27.31 +/- 2.56 uM); type: functional; settings: time 25 hrs
[15] = tested on: Peritoneal macrophage; test: Antiinflammatory activity in […] mouse Peritoneal macrophages assessed as inhibition of LPS-induced NO production at 10 uM preincubated for 1 hr followed by LPS stimulation measured after 24 hrs by Griess method relative to control (reference value: 0.0 %); type: functional; design: scale not given: the % may be the effect or the level left; settings: time 25 hrs
[16] = tested on: Rattus norvegicus; test: Antiinflammatory activity in Wistar rat model of carrageenan-induced paw edema assessed as reduction in thickness of paw edema at 10 mg/kg, ip pretreated for 1 hr followed by carrageenan challenge and measured after 1 hr (reference value: 2.41 +/-0.05 mm); type: functional; settings: time 1 hr after carrageenan
[17] = tested on: Rattus norvegicus; test: Antiinflammatory activity in Wistar rat model of carrageenan-induced paw edema assessed as reduction in thickness of paw edema at 10 mg/kg, ip pretreated for 1 hr followed by carrageenan challenge and measured after 24 hrs (reference value: 0.83 +/-0.08 mm); type: functional; settings: time 25 hrs
[18] = tested on: Streptococcus pyogenes; test: Antibacterial activity against Streptococcus pyogenes ATCC 19615 incubated for 18 hrs by agar dilution method; type: functional
[19] = tested on: Splenocyte; test: Immunomodulatory activity in Swiss albino mouse splenocytes assessed as cell viability at 10 uM by measuring inhibition of stimulation index incubated for 72 hrs in presence of mitogenic stimulus phytohaemagglutinin by MTT assay relative to indomethacin; type: functional; settings: read-out: Activity
[20] = tested on: Salmonella typhimurium; test: Antibacterial activity against Salmonella typhimurium ATCC 19430 incubated for 18 hrs by agar dilution assay; type: functional, Salmonella enterica subsp. enterica serovar Typhimurium; settings: Salmonella enterica

MIC [3]	MIC [10]	MIC [11]	MIC [18]	MIC [20]	Structure (SMILES)	inhibition in vivo at 10 mg/kg [1]	Activity [2]	inhibition in vivo at 10 mg/kg [4]	Activity [5]	inhibition in vivo at 10 mg/kg [6]	inhibition in vivo at 10 mg/kg [7]	inhibition in vivo at 10 mg/kg [8]	inhibition in vivo at 10 mg/kg [9]	Activity_index [12]	Activity [13]	Activity [14]	Activity [15]	Activity [16]	Activity [17]	viability at 10 µM [19]
0.5 µg/mL and 0.494 µM	0.5 µg/mL and 0.494 µM	0.25 µg/mL and 0.247 µM	0.5 µg/mL and 0.494 µM	0.5 µg/mL and 0.494 µM	COc1cc(/C=C/C(=O)/C=C(O)/C=C/c2ccc(OC(=O)[C@@H](NC(=O)OCC3c4ccccc4-c4ccccc43)C(C)C)c(OC)c2)ccc1OC(=O)[C@@H](NC(=O)OCC1c2ccccc2-c2ccccc21)C(C)C	50%	1.05 mm	22%	0.66 mm	49%	47%	53%	61%	2.55	0.9 mm	23.91 µM	12.46%	1.88 mm	0.44 mm	47.5%
0.5 µg/mL and 0.452 µM	2 µg/mL and 1.81 µM	0.25 µg/mL and 0.226 µM	0.125 µg/mL and 0.113 µM	0.25 µg/mL and 0.226 µM	COc1cc(/C=C/C(=O)/C=C(O)/C=C/c2ccc(OC(=O)[C@H](Cc3ccccc3)NC(=O)OCC3c4ccccc4-c4ccccc43)c(OC)c2)ccc1OC(=O)[C@H](Cc1ccccc1)NC(=O)OCC1c2ccccc2-c2ccccc21	54%	1.22 mm	10%	0.56 mm	41%	5%	60%	69%	1.78	0.82 mm	18.84 µM	31.01%	2.17 mm	0.79 mm	68.1%
1 µg/mL and 1.05 µM	0.25 µg/mL and 0.262 µM	0.5 µg/mL and 0.524 µM	0.5 µg/mL and 0.524 µM	0.25 µg/mL and 0.262 µM	COc1cc(/C=C/C(=O)/C=C(O)/C=C/c2ccc(OC(=O)[C@H](C)NC(=O)OCC3c4ccccc4-c4ccccc43)c(OC)c2)ccc1OC(=O)[C@H](C)NC(=O)OCC1c2ccccc2-c2ccccc21	43%	1.59 mm	12%	0.62 mm	23%	51%	56%	64%	2.22	1.02 mm	21.79 µM	20.22%	2.12 mm	0.41 mm	54.4%

The next lines start with the compound.

Structure (SMILES)	MIC [3]	MIC [10]	MIC [11]	MIC [18]	MIC [20]	inhibition in vivo at 10 mg/kg [1]	Activity [2]	inhibition in vivo at 10 mg/kg [4]	Activity [5]	inhibition in vivo at 10 mg/kg [6]	inhibition in vivo at 10 mg/kg [7]	inhibition in vivo at 10 mg/kg [8]	inhibition in vivo at 10 mg/kg [9]	Activity_index [12]	Activity [13]	Activity [14]	Activity [15]	Activity [16]	Activity [17]	viability at 10 µM [19]
COc1cc(/C=C/C(=O)/C=C(O)/C=C/c2ccc(OC(=O)[C@@H](C)NC(=O)OC(C)(C)C)c(OC)c2)ccc1OC(=O)[C@@H](C)NC(=O)OC(C)(C)C	0.5 µg/mL and 0.703 µM	0.25 µg/mL and 0.352 µM	0.125 µg/mL and 0.176 µM	1 µg/mL and 1.41 µM	0.25 µg/mL and 0.352 µM	39%	1.46 mm	22%	0.81 mm	29%	37%	42%	48%	2.07	1.09 mm	20.81 µM	23.82%	1.87 mm	0.52 mm	58.3%
COc1cc(/C=C/C(=O)/C=C(O)/C=C/c2ccc(OC(=O)[C@H](Cc3c[nH]c4ccccc34)NC(=O)OCc3ccccc3)c(OC)c2)ccc1OC(=O)[C@H](Cc1c[nH]c2ccccc12)NC(=O)OCc1ccccc1	1 µg/mL and 0.991 µM	0.25 µg/mL and 0.248 µM	0.125 µg/mL and 0.124 µM	0.5 µg/mL and 0.496 µM	0.125 µg/mL and 0.124 µM	24%	1.48 mm	37%	1.23 mm	28%	1%	12%	14%	2.6	1.36 mm	24.28 µM	11.08%	1.52 mm	0.82 mm	46.5%
COc1cc(/C=C/C(=O)/C=C(O)/C=C/c2ccc(OC(=O)C(C)NC(=O)OC(C)(C)C)c(OC)c2)ccc1OC(=O)C(C)NC(=O)OC(C)(C)C (stereo not given)	0.5 µg/mL and 0.703 µM	0.25 µg/mL and 0.352 µM	0.25 µg/mL and 0.352 µM	0.125 µg/mL and 0.176 µM	0.25 µg/mL and 0.352 µM	25%	1.74 mm	11%	0.84 mm	16%	29%	40%	46%	1.78	1.34 mm	18.88 µM	30.88%	2.15 mm	0.59 mm	67.9%
COc1cc(/C=C/C(=O)/C=C(O)/C=C/c2ccc(OC(=O)CNC(=O)OC(C)(C)C)c(OC)c2)ccc1OC(=O)CNC(=O)OC(C)(C)C	0.5 µg/mL and 0.732 µM	0.25 µg/mL and 0.366 µM	0.25 µg/mL and 0.366 µM	1 µg/mL and 1.47 µM	0.125 µg/mL and 0.183 µM	44%	1.16 mm	43%	0.73 mm	44%	47%	48%	55%	2.11	1 mm	18.12 µM	33.65%	1.37 mm	0.44 mm	57.4%
COc1cc(/C=C/C(=O)/C=C(O)/C=C/c2ccc(OC(=O)[C@H](C)NC(=O)OC(C)(C)C)c(OC)c2)ccc1OC(=O)[C@H](C)NC(=O)OC(C)(C)C	1 µg/mL and 1.41 µM	1 µg/mL and 1.41 µM	0.125 µg/mL and 0.176 µM	0.25 µg/mL and 0.352 µM	0.125 µg/mL and 0.176 µM	20%	1.84 mm	6%	1.04 mm	11%	5%	28%	32%	2.71	1.44 mm	21.3 µM	22.02%	2.26 mm	0.79 mm	44.6%
